Legend:
Assay in all cases: HRV cytopathic effect assay
Assay type in all cases: cell-based
Conditions in all cases: Human rhinovirus sp.
HRV serotype 73 = tested on: HRV serotype 73
Description: (§1) For sensitivity testing to pleconaril, the appropriate cells were seeded into 96 well plates at a concentration of 4×10^4/well. After an overnight incubation at 37° C., the medium was removed and the cells were infected with 150 μL of a dilution of virus previously titrated to give ≧85% lysis of the monolayer after 3 days of incubation. The plates were incubated for 1 hour at the appropriate temperature and then overlaid with 50 μL of medium containing serial 2-fold dilutions of pleconaril in 2% DMSO. The final DMSO concentration in the assay was always 0.5%. No virus and no pleconaril controls were included on each plate. All drug concentrations were run in quadruplicate. The plates were then incubated for 3 days at the appropriate temperature followed by processing as described above.

HRV serotype 94 = tested on: HRV serotype 94
Description: as §1

HRV serotype 100 = tested on: HRV serotype 100
Description: as §1

HRV serotype 17 = tested on: HRV serotype 17
Description: as §1

HRV serotype 47 = tested on: HRV serotype 47
Description: as §1

HRV serotype 30 = tested on: HRV serotype 30
Description: as §1

HRV serotype 66 = tested on: HRV serotype 66
Description: as §1

HRV serotype 16 = tested on: HRV serotype 16
Description: as §1

HRV serotype 4 = tested on: HRV serotype 4
Description: as §1

HRV serotype 97 = tested on: HRV serotype 97
Description: as §1

HRV serotype 37 = tested on: HRV serotype 37
Description: as §1

HRV serotype 22 = tested on: HRV serotype 22
Description: as §1

HRV serotype 29 = tested on: HRV serotype 29
Description: as §1

HRV serotype 96 = tested on: HRV serotype 96
Description: as §1

HRV serotype 54 = tested on: HRV serotype 54
Description: as §1

HRV serotype 36 = tested on: HRV serotype 36
Description: as §1

HRV serotype 12 = tested on: HRV serotype 12
Description: as §1

HRV serotype 93 = tested on: HRV serotype 93
Description: as §1

HRV serotype 95 = tested on: HRV serotype 95
Description: as §1

HRV serotype 50 = tested on: HRV serotype 50
Description: as §1

HRV serotype 68 = tested on: HRV serotype 68
Description: as §1

HRV serotype 2 = tested on: HRV serotype 2
Description: as §1

HRV serotype 46 = tested on: HRV serotype 46
Description: as §1

HRV serotype 42 = tested on: HRV serotype 42
Description: as §1

HRV serotype 35 = tested on: HRV serotype 35
Description: as §1

HRV serotype 31 = tested on: HRV serotype 31
Description: as §1

HRV serotype 76 = tested on: HRV serotype 76
Description: as §1

HRV serotype 53 = tested on: HRV serotype 53
Description: as §1

HRV serotype 64 = tested on: HRV serotype 64
Description: as §1

HRV serotype 8 = tested on: HRV serotype 8
Description: as §1

HRV serotype 51 = tested on: HRV serotype 51
Description: as §1

HRV serotype 60 = tested on: HRV serotype 60
Description: as §1

HRV serotype 79 = tested on: HRV serotype 79
Description: as §1

HRV serotype 62 = tested on: HRV serotype 62
Description: as §1

HRV serotype 70 = tested on: HRV serotype 70
Description: as §1

HRV serotype 99 = tested on: HRV serotype 99
Description: as §1

HRV serotype 81 = tested on: HRV serotype 81
Description: as §1

HRV serotype 92 = tested on: HRV serotype 92
Description: as §1

HRV serotype 14 = tested on: HRV serotype 14
Description: as §1

HRV serotype 88 = tested on: HRV serotype 88
Description: as §1

HRV serotype 78 = tested on: HRV serotype 78
Description: as §1

HRV serotype 3 = tested on: HRV serotype 3
Description: as §1

HRV serotype 10 = tested on: HRV serotype 10
Description: as §1

With `Cc1cc(CCCOc2c(C)cc(-c3noc(C(F)(F)F)n3)cc2C)on1` [pleconaril, 3-[3,5-dimethyl-4-[3-(3-methyl-5-isoxazolyl)propoxy]phenyl]-5-(trifluoromethyl)-1,2,4-oxadiazole] the IC50 (HRV serotype 73) was 210 ± 90 nM, the IC50 (HRV serotype 94) was 1100 ± 440 nM and the IC50 (HRV serotype 100) was 30 ± 10 nM. It also gave an IC50 (HRV serotype 17) of 230 ± 80 nM, an IC50 (HRV serotype 47) of 10 nM and an IC50 (HRV serotype 30) of 230 ± 80 nM. For the same molecule, the IC50 (HRV serotype 66) was 110 ± 70 nM, the IC50 (HRV serotype 16) was 570 ± 190 nM and the IC50 (HRV serotype 4) was > 12500 nM. The IC50 (HRV serotype 97) was > 12500 nM, the IC50 (HRV serotype 37) was 60 ± 20 nM and the IC50 (HRV serotype 22) was 40 ± 20 nM. The IC50 (HRV serotype 29) was 270 ± 70 nM, the IC50 (HRV serotype 96) was 90 ± 50 nM and the IC50 (HRV serotype 54) was 460 ± 110 nM. For the same molecule, the IC50 (HRV serotype 36) was 110 ± 20 nM, the IC50 (HRV serotype 12) was 390 ± 120 nM and the IC50 (HRV serotype 93) was > 12500 nM. The IC50 (HRV serotype 95) was 810 ± 510 nM, the IC50 (HRV serotype 50; HRV50, Table 2, mean of at least two independent determinations) was 350 ± 70 nM and the IC50 (HRV serotype 50; serotype 50) was 350 ± 70 nM. For the same molecule, the IC50 (HRV serotype 68) was 30 ± 20 nM, the IC50 (HRV serotype 2; HRV2, Table 2, mean of at least two independent determinations) was 30 ± 30 nM and the IC50 (HRV serotype 2; serotype 2) was 30 ± 30 nM. For the same molecule, the IC50 (HRV serotype 46) was 160 ± 50 nM, the IC50 (HRV serotype 42) was > 12500 nM and the IC50 (HRV serotype 35) was 40 ± 10 nM. It also gave an IC50 (HRV serotype 31) of 130 ± 70 nM, an IC50 (HRV serotype 76) of 240 ± 290 nM and an IC50 (HRV serotype 53) of 280 ± 60 nM. For the same molecule, the IC50 (HRV serotype 64) was 320 ± 240 nM, the IC50 (HRV serotype 8) was 3420 ± 2700 nM and the IC50 (HRV serotype 51) was 50 ± 30 nM. For the same molecule, the IC50 (HRV serotype 60) was 480 ± 140 nM, the IC50 (HRV serotype 79) was 40 ± 60 nM and the IC50 (HRV serotype 62) was 160 ± 60 nM. The IC50 (HRV serotype 70) was 300 ± 190 nM, the IC50 (HRV serotype 99) was > 12500 nM and the IC50 (HRV serotype 81) was 300 ± 70 nM. For the same molecule, the IC50 (HRV serotype 92) was 20 ± 10 nM, the IC50 (HRV serotype 14; HRV14, Table 2, mean of at least two independent determinations) was 160 ± 90 nM and the IC50 (HRV serotype 14; serotype 14) was 160 ± 90 nM. For the same molecule, the IC50 (HRV serotype 88) was 100 ± 40 nM, the IC50 (HRV serotype 78) was 80 ± 40 nM and the IC50 (HRV serotype 3; HRV3, Table 2, mean of at least two independent determinations) was 90 ± 40 nM. For the same molecule, the IC50 (HRV serotype 3; serotype 3) was 90 ± 40 nM and the IC50 (HRV serotype 10) was 130 ± 50 nM.

From patent US20060167109A1, “Methods of reducing rhinovirus contagion and related compositions” (priority 2002, published 2006)
